# Experimental data as given in PMC9586938, “Picomolar fluorescent probes for compound affinity determination to carbonic anhydrase IX expressed in live cancer cells” (Scientific Reports, 2022).
# Columns and labels:
# CAI = target: T1, CAI (Homo sapiens, UniProt P00915); experiment: Thermal shift assay (TSA), recombinant CAI; assay type: binding; conditions: 37 °C, pH 7.0, observed (not intrinsic)
# T1 construct: made in house; host or cells: E. coli
# CAIII = target: T2, CAIII (Homo sapiens, UniProt P07451); experiment: Thermal shift assay (TSA), recombinant CAIII; assay type: binding; conditions: 37 °C, pH 7.0, observed (not intrinsic)
# T2 construct: made in house; host or cells: E. coli
# Method: (§1) The binding affinities of all fluorescein-containing compounds were determined for all 12 catalytically active CA isozymes by the thermal shift assay (TSA). […] However, the SFA technique cannot determine the affinities lower than the enzyme concentration used in the assay. […] In addition, we used isothermal titration calorimetry (ITC), the standard assay to determine affinity and enthalpy of protein–ligand binding. […] Therefore, ITC was used only to determine the enthalpy of interaction and confirm the ordering of compound affinities.
# (§2) All twelve catalytically active human CA isozymes were prepared recombinantly as previously described. Isozymes CAIX, CAXII, and CAXIV were the catalytic domains of the proteins[14],[38]. All isozymes were expressed in E. coli except CAIX that has been prepared in mammalian cells. The proteins were chromatographically purified on ion-exchange or benzene sulfonamide containing affinity columns. Protein MW was confirmed by mass spectrometry with 1 Da precision as predicted from gene sequence.
# (§3) Compound affinities for the twelve catalytically active CA isozymes were determined by the thermal shift assay as previously described[30],[39]. Protein solutions containing 1,8-anilinonaphthalenesulfonate fluorescent probe were heated from 25 to 100 °C at a rate of one degree per minute while following the fluorescence of the probe. The temperature scanning curves provided the melting temperature Tm of the protein. The Tm has a distinct dependence on the concentration of a compound. Stronger binders shift the Tm to a greater extent than the weak binders. The Tm dependencies on compound concentration were fit to obtain the affinity Kd[40].
# CAVB = target: T3, CAVB (Homo sapiens, UniProt Q9Y2D0); experiment: Thermal shift assay (TSA), recombinant CAVB; assay type: binding; conditions: 37 °C, pH 7.0, observed (not intrinsic)
# T3 construct: made in house; host or cells: E. coli
# CAVII = target: T4, CAVII (Homo sapiens, UniProt P43166); experiment: Thermal shift assay (TSA), recombinant CAVII; assay type: binding; conditions: 37 °C, pH 7.0, observed (not intrinsic)
# T4 construct: made in house; host or cells: E. coli
# [1] = target: T5, catalytic domain of recombinant human CAIX (Homo sapiens, UniProt Q16790); experiment: Thermal shift assay (TSA), recombinant CAIX catalytic domain; assay type: binding; conditions: for Kd: TSA, 37 °C, pH 7.0, observed (not intrinsic), read-out: Kd CAIX; for binding to CAIX by TSA (in words): recombinant CAIX
# T5 construct: Isozymes CAIX, CAXII, and CAXIV were the catalytic domains of the proteins; made in house; host or cells: mammalian cells
# CAXII = target: T6, CAXII (Homo sapiens, UniProt O43570); experiment: Thermal shift assay (TSA), recombinant CAXII; assay type: binding; conditions: 37 °C, pH 7.0, observed (not intrinsic)
# T6 construct: Isozymes CAIX, CAXII, and CAXIV were the catalytic domains of the proteins; made in house; host or cells: E. coli
# Method: as §1, §2, §3
# CAXIII = target: T7, CAXIII (Homo sapiens, UniProt Q8N1Q1); experiment: Thermal shift assay (TSA), recombinant CAXIII; assay type: binding; conditions: 37 °C, pH 7.0, observed (not intrinsic)
# T7 construct: made in house; host or cells: E. coli
# CAXIV = target: T8, CAXIV (Homo sapiens, UniProt Q9ULX7); experiment: Thermal shift assay (TSA), recombinant CAXIV; assay type: binding; conditions: 37 °C, pH 7.0, observed (not intrinsic)
# T8 construct: Isozymes CAIX, CAXII, and CAXIV were the catalytic domains of the proteins; made in house; host or cells: E. coli
# recombinant human CAIX = target: T9, recombinant human CAIX (Homo sapiens, UniProt Q16790); experiment: Isothermal titration calorimetry (ITC) with recombinant CAIX; assay type: binding
# T9 construct: Isozymes CAIX, CAXII, and CAXIV were the catalytic domains of the proteins; made in house; host or cells: mammalian cells
# Method: as §1
# Affinities of several selected compounds to several human CA isozymes have been determined by ITC as described previously[43],[44]. The protein solution was placed in the cell of iTC200 titration calorimeter while the compound solution in identical buffer was placed in the syringe. After thermal equilibration, the compound solution was injected into the cell by identical injections. The heat produced during the reaction was measured by the calorimeter providing the shape of the curve that in turn yielded the enthalpy and the affinity Kd of the interaction.
# Picomolar Fluorescent Probes for Compound Affinity Determination to Carbonic Anhydrase IX Expressed in Live Cancer Cells
# Figure S1. […] The binding affinity of GZ19-32 was too high to be accurately measured by ITC due to the limitation related to the Wiseman parameter C. […]
# [2] = test system: HeLa CAIX-KO and normoxia-grown WT HeLa cells; experiment: Fluorescein-labeled compound dosing to CAIX-KO and normoxia-grown HeLa cells (non-specific binding); assay type: cell-based, human
# Method: HeLa cell culture was grown in 12-well plates, either under hypoxia (1% O2) or under normoxia (21% O2), for 70 to 76 h. The medium was removed. Then 200 µL of serially diluted compound (twelve twofold steps) in the FB medium, usually starting at 80 nM (80, 40, 20, …, 0 nM), was added and incubated at 37 ℃ under normoxia in the CO2 incubator for 20 min (2 or 5 min in some experiments where specified). Then the compound solution was removed and the cells were washed 3 times for 1.5–2 min with 400 µL of PBS at RT. Then 180 µL of TrypLe express enzyme (ThermoFisher) was added to each well and incubated in CO2 incubator for 5 min to 10 min until the cells deattached from the surface. After addition of 20 µL of Defined Trypsin Inhibitor solution (ThermoFisher), cells were resuspended by pipetting and 150 µL of the suspension from each well were transferred to black Thermo Scientific™ Nunc MicroWell 96-Well Optical-Bottom Plates for fluorescence and absorbance measurements. The fluorescence was recorded at 485 nm excitation and 520 nm emission wavelengths in the plate reader (Synergy HTX, BioTek). The absorbance was recorded at 650 nm to measure the optical density of the cell suspension.
# The compound solution was prepared by weighing 3–5 mg of a purified compound and dissolving in DMSO at 10 mM concentration. The 1 mM compound stock in DMSO was prepared by taking 10 µL of 10 mM stock and adding to 90 µL DMSO. The 10 µM compound stock was prepared by taking 10 µL of 1 mM compound stock in DMSO and adding 990 µL of the FB medium (this stock contained 1% of DMSO). Then 80 nM compound solution was prepared by taking 10 µL of 10 µM solution and adding 1.24 mL of the FB medium and placed to the first Eppendorf tube. Then 300 µL of FB medium were added to the Eppendorf tubes 2 to 12. A serial dilution was performed by taking 300 µL of solution from tube 1 to 2, then from 2 to 3 and so on while mixing vigorously at each step. No solution was transferred to the last tube thus it contained only FB medium and no compound. Then 200 µL from 12 tubes were transferred to the 12 wells of cell culture-containing 12-well plate, starting from the lowest concentration.
# This equation was fit to the dosing curves of several fluorescently-labeled ligands to both the cells grown in hypoxia and in normoxia, both to the WT and CRISPR-Cas9 CAIX knockout cells. The cells bound both the GZ19-32 and GZ20-40 ligands that differed only in the length of the linker and both contained the same head-group. […] Furthermore, the ligands that had their sulfonamide amino group substituted with the methyl completely abandoned their capability of binding CAIX in this concentration region. The binding was also abolished for the CAIX-KO HeLa cells.
# T4 sequence (P43166 whole entry): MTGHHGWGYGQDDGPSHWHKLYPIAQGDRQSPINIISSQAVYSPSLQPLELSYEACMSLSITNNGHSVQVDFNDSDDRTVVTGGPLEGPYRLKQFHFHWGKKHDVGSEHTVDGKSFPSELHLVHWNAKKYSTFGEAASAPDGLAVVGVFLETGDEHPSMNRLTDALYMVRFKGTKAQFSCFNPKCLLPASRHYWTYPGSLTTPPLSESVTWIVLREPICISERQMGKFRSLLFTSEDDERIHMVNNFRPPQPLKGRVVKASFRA
# T3 sequence (Q9Y2D0 34-317): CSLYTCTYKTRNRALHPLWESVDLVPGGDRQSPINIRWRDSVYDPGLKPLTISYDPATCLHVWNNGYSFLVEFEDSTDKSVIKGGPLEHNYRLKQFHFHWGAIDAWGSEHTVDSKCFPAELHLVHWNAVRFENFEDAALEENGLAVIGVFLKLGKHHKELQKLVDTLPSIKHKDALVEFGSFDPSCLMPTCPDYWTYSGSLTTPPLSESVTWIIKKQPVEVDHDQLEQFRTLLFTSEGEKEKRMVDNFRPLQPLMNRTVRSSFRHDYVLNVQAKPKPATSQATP
# T2 sequence (P07451 whole entry): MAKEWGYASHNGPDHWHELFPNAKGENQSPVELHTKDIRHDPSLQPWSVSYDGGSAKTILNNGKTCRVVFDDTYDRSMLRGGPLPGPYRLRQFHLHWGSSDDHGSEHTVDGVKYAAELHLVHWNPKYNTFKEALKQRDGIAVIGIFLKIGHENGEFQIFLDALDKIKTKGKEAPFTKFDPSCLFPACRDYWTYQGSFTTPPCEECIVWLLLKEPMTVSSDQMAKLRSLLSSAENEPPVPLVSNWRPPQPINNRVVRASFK
# T1 sequence (P00915 whole entry): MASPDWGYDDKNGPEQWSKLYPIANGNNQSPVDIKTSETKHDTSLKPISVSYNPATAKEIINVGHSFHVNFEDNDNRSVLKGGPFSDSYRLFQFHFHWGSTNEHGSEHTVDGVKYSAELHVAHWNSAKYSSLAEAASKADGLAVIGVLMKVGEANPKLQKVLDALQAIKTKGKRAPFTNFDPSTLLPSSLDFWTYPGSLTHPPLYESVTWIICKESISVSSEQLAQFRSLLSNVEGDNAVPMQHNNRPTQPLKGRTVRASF
# T8 sequence (Q9ULX7 20-278 limits assumed): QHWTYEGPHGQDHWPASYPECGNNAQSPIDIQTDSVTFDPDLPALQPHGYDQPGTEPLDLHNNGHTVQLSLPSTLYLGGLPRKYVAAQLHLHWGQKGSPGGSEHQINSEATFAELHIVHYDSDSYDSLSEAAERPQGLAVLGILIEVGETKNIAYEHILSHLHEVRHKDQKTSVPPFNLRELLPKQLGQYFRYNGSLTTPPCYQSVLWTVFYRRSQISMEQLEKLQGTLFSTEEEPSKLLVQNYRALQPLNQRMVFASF
# T7 sequence (Q8N1Q1 whole entry): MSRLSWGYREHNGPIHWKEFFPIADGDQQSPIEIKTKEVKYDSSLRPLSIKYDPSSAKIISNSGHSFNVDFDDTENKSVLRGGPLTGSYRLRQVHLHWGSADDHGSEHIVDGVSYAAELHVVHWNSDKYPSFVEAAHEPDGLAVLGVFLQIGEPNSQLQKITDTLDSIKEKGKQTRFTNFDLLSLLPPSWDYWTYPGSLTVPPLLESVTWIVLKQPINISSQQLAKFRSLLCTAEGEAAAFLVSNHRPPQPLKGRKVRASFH
# T6 sequence (O43570 30-289 limits assumed): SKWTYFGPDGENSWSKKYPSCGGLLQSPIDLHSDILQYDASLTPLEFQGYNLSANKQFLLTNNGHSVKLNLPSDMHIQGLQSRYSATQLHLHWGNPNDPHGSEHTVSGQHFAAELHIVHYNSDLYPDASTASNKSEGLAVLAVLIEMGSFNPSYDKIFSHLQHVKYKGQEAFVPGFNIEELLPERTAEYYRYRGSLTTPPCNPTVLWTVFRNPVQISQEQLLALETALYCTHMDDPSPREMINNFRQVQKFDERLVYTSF
Compound,Kd (CAI) [nM],Kd (CAIII) [nM],Kd (CAVB) [nM],Kd (CAVII) [nM],Kd [1] [nM],binding to CAIX by TSA (in words) [1],Kd (CAXII) [nM],Kd (CAXIII) [nM],Kd (CAXIV) [nM],binding to CAIX by ITC (in words) (recombinant human CAIX),"non-specific binding to cells ([2]; micromolar concentration range, Fig. 9B, 9C)","concentration above which compound binds normoxia-grown WT and CAIX-KO HeLa cells ([2]; 5 min incubation, Fig. 9A) [nM]","fluorescence of compound bound to HeLa CAIX-KO cells ([2]; CAIX-KO cells grown under hypoxia, 10 nM to 100 nM)"
"3-((2-(cyclooctylamino)-3,5,6-trifluoro-4-(methylsulfonyl)phenyl)sulfonyl)-N-(3',6'-dihydroxy-3-oxo-3H-spiro[isobenzofuran-1,9'-xanthen]-5-yl)propanamide and 3-((3-(cyclooctylamino)-2,5,6-trifluoro-4-(methylsulfonyl)phenyl)sulfonyl)-N-(3',6'-dihydroxy-3-oxo-3H-spiro[isobenzofuran-1,9'-xanthen]-5-yl)propanamide [GZ20-37]",> 100000,> 100000,> 100000,> 100000,> 100000,did not show binding,> 100000,> 100000,> 100000,did not show binding,bound cells in the micromolar concentration range,–,–
"NS(=O)(=O)c1c(F)c(F)c(S(=O)(=O)CCC(=O)Nc2ccc3c(c2)C(=O)OC32c3ccc(O)cc3Oc3cc(O)ccc32)c(NC2CCCCCCC2)c1F [GZ19-32, 3-((2-(cyclooctylamino)-3,5,6-trifluoro-4-sulfamoylphenyl)sulfonyl)-N-(3',6'-dihydroxy-3-oxo-3H-spiro[isobenzofuran-1,9'-xanthen]-5-yl)propanamide]",500,1670,13,5,0.005,high affinity for CAIX (pM range),1.3,0.67,3.3,too high to be accurately measured,–,> 100,did not show an increase in fluorescence
